Measurements from ChEMBL document CHEMBL1201862, “PubChem BioAssay data set” (2004).
Calls of active or inactive are those of the source.

Legend:
[1] = target: Dual specificity protein phosphatase 3 (Homo sapiens, UniProt P51452); assay: VHR phosphatase inhibition, dose response, selectivity assay for STEP inhibitor project, biochemical (AID 602374); assay type: functional; settings: read-out: IC50_Mean
[2] = target: Tyrosine-protein phosphatase non-receptor type 11 (Homo sapiens, UniProt Q06124); assay: PTPN11 enzyme inhibitors – biochemical, selectivity assay for STEP inhibitor project, dose response (AID 602367); assay type: functional; settings: read-out: IC50_Mean
Sequence of Tyrosine-protein phosphatase non-receptor type 11 (Q06124 whole entry): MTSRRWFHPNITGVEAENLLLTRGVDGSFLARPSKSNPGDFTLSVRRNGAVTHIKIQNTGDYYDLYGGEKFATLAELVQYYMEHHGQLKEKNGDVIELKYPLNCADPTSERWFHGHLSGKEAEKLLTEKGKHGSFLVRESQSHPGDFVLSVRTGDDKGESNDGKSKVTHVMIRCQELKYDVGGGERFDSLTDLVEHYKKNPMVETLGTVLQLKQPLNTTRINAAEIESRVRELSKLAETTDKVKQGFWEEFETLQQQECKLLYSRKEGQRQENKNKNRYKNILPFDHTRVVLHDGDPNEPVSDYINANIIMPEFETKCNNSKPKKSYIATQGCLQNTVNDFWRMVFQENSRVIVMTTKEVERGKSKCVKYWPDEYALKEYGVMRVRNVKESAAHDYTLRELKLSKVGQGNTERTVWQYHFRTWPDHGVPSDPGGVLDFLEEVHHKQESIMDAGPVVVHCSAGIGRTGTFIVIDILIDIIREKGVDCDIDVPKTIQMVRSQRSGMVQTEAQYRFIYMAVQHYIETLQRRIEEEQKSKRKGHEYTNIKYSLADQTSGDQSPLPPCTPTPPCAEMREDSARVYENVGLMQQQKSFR

[3] = target: Tyrosine-protein phosphatase non-receptor type 5 (Homo sapiens, UniProt P54829); assay: PTPN5 enzyme inhibition – biochemical, fluorescence intensity, uHTS hits, confirmation (AID 602372); assay type: functional; settings: read-out: IC50_Mean
Sequence of Tyrosine-protein phosphatase non-receptor type 5 (P54829 whole entry): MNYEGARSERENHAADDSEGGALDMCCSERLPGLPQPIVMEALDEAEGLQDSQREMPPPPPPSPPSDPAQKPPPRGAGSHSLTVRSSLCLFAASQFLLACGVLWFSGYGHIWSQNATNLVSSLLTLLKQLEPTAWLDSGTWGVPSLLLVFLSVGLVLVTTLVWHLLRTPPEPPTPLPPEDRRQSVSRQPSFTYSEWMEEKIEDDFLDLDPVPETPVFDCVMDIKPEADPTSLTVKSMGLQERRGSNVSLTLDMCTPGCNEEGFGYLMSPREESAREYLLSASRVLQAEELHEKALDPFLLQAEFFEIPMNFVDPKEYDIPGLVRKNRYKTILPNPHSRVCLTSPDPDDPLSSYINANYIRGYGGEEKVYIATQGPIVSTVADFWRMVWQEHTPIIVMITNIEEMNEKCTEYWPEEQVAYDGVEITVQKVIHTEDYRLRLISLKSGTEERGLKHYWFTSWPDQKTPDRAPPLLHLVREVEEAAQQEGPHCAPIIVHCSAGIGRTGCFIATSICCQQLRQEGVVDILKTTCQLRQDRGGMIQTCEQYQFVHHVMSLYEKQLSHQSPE

[4] = target: Mitochondrial peptide methionine sulfoxide reductase (Bos taurus, UniProt P54149); assay type: functional;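 also: absorbance read-out, biochemical high-throughput dose-response screen for MsrA inhibitors, confirmatory; recombinant bovine MsrA coupled to E. coli TrxB with NADPH and selenocystamine; potency is for inhibitors of MsrA activity on DMSO substrate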
[5] = target: T1, Insulin-degrading enzyme (Homo sapiens, UniProt P14735); assay: recombinant IDE activation, cell-free – biochemical, fluorescence polarization, counter-screen for IDE activator project, dose response (AID 588681)
T1 sequence (P14735 whole entry): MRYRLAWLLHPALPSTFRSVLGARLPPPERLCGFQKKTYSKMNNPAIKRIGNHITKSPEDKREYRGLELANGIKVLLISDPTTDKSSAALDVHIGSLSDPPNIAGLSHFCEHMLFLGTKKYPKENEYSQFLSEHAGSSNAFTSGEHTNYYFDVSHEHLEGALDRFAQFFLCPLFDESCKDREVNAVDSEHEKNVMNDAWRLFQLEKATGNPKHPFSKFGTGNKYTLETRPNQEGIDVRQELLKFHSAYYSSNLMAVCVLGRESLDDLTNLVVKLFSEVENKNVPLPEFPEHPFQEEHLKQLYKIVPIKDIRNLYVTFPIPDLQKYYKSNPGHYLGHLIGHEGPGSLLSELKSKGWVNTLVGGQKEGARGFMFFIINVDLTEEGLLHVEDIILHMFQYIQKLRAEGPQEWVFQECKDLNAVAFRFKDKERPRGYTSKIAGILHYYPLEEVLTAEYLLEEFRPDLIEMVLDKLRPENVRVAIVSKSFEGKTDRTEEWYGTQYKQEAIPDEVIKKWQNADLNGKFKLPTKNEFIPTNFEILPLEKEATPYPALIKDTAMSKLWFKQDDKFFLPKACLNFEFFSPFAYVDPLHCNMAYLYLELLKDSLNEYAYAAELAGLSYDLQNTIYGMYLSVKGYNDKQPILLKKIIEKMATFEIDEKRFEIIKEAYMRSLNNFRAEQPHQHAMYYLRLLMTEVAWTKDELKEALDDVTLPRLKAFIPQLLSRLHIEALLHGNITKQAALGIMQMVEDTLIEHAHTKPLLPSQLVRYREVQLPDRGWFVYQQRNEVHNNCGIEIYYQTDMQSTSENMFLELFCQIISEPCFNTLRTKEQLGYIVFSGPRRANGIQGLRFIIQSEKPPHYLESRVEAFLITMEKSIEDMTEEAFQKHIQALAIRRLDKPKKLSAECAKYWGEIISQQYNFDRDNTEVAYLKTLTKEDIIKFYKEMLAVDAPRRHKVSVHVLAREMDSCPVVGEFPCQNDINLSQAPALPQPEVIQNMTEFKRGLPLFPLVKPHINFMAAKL

[6] = target: T1, Insulin-degrading enzyme; assay: cellular IDE activation of Abeta substrate cleavage – fluorescence polarization, HEK cells, dose response (AID 588439); assay type: functional, cell-based
[7] = tested on: HEK293; assay: optical interference in Abeta FP readout, dose response, artefact control for IDE activator project, biochemical, fluorescence polarization (AID 588442); assay type: functional, cell-based; settings: Homo sapiens
[8] = tested on: HEK293; assay: membrane integrity loss in HEK cells – cell-based, fluorescence, cytotoxicity control for IDE activator project, dose response (AID 588440); assay type: functional; settings: Homo sapiens;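 also: cytotoxicity by LDH release measuring loss of membrane integrity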
[9] = target: T2, Heat shock factor protein 1 (Mus musculus, UniProt P38532); assay: enhancement of HSF1-driven luciferase signal – cell-based, NIH3T3, luminescence, dose retest, confirmation (AID 435004); assay type: functional;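 also: stress induced by proteasome inhibitor MG132 added 30 min after compound; luciferase reporter driven by HSF1 response element in NIH3T3 cells; actives raise luminescence as potentiators of the MG132 stress response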
T2 sequence (P38532 whole entry): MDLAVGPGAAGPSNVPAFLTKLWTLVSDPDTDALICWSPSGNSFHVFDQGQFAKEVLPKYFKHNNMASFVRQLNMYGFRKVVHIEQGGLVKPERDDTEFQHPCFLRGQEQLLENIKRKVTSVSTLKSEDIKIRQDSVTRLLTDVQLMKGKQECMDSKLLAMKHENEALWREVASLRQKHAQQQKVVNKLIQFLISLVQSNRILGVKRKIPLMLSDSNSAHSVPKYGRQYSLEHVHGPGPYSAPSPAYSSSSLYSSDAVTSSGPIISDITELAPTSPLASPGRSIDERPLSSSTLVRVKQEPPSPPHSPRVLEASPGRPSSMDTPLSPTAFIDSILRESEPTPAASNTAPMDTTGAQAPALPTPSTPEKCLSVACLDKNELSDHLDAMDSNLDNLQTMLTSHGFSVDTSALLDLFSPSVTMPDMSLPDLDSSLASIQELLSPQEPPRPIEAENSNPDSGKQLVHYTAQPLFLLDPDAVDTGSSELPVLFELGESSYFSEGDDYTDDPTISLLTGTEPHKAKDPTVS

[10] = target: Melanocortin receptor 4 (Homo sapiens, UniProt P32245); assay: inhibitors of MC4R cAMP signaling – cell-based, TR-FRET, biased antagonists, dose response (AID 602298); assay type: functional;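 also: antagonist potency against agonist-stimulated cAMP production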
[11] = target: Beta-galactosidase (Escherichia coli, UniProt Q8VNN2); assay: Dose response counterscreen for EBI2 assay utilizing the enzyme, b-galactosidase.; assay type: functional
Sequence of Beta-galactosidase (Q8VNN2 whole entry): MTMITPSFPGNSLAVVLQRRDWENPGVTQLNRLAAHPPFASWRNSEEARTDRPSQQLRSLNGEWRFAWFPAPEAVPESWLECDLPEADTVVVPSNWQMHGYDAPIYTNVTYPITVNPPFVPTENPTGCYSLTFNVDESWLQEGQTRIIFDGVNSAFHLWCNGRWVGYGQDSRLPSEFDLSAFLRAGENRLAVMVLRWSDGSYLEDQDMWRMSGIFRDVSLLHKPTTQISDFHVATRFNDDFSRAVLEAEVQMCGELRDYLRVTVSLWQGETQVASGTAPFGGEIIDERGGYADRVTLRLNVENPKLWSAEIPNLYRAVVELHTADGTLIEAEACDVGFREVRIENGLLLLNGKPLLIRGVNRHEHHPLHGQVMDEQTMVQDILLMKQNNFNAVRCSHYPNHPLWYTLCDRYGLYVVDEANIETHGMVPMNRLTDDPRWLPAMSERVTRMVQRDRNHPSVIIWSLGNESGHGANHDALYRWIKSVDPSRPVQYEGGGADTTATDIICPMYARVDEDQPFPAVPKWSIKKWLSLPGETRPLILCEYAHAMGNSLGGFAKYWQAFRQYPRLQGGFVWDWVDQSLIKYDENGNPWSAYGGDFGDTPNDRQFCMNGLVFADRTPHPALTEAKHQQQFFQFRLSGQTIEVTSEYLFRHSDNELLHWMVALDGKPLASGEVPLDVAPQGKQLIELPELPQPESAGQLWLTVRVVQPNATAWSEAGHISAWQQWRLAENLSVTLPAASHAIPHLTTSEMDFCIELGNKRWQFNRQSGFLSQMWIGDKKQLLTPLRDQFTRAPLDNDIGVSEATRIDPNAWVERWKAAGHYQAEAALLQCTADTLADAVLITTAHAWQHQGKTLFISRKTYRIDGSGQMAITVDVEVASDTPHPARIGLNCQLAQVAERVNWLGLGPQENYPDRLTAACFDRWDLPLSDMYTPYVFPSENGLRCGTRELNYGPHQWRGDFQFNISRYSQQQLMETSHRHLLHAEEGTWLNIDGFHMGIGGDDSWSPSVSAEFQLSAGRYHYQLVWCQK

[12] = cAMP pathway inhibition in counterscreen cell line – TR-FRET cAMP detection, counter-screen for MC4R biased antagonist project, dose response (AID 602305); assay type: functional, cell-based;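 also: U2OS cells stimulated with forskolin near its EC80 as the cAMP inducer; potency is for inhibition of forskolin-stimulated cAMP signaling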
[13] = target: Melanin-concentrating hormone receptor 1 (Homo sapiens, UniProt Q99705); assay: Late-stage fluorescence-based counterscreen for antagonists of the G-protein coupled receptor 7 (GPR7): cell-based dose response assay to identify antagonists of the melanin-concentrating hormone receptor 1 (MCHR1) Set 5.; assay type: functional
Sequence of Melanin-concentrating hormone receptor 1 (Q99705 whole entry): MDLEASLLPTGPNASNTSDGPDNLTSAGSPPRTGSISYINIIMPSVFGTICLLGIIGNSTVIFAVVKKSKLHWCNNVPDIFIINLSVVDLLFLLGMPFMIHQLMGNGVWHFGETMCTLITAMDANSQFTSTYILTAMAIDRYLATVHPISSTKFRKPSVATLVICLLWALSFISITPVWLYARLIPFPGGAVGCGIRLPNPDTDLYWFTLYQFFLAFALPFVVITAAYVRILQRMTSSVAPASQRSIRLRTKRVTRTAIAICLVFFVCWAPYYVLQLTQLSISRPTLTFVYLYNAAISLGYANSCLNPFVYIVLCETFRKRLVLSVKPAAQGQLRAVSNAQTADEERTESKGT

[14] = target: T3, Aryl hydrocarbon receptor (Homo sapiens, UniProt P35869); settings: Potency;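 also: confirmatory quantitative high-throughput screen measuring activation of the AhR signaling pathway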
T3 sequence (P35869 whole entry): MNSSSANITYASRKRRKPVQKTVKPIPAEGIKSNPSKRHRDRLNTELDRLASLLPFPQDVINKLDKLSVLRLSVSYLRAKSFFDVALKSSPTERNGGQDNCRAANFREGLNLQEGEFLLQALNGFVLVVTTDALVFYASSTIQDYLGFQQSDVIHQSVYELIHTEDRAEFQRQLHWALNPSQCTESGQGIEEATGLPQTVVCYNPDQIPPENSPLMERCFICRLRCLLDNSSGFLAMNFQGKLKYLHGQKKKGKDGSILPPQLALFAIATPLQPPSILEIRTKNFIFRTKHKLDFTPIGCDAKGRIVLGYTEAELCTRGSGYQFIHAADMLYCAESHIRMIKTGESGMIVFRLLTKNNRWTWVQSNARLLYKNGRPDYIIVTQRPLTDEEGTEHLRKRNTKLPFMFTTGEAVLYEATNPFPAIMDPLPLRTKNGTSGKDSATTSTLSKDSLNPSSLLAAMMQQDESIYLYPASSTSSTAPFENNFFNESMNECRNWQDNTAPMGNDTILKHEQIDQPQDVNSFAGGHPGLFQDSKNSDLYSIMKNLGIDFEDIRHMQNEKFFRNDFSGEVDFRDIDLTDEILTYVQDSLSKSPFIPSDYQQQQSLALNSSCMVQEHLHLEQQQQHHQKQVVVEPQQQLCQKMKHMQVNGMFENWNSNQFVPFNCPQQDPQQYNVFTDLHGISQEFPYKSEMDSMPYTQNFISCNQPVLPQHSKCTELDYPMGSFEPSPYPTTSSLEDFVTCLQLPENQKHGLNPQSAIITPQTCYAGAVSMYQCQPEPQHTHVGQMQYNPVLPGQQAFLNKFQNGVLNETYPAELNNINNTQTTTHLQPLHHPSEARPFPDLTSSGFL

[15] = cells; assay type: functional, cell-based
[16] = Counterscreen for activators of the function of SWI/SNF related, matrix associated, actin dependent regulator of chromatin, subfamily a, member 2 (SMARCA2, BRM): Luminescence-based cell-based high throughput dose response assay to identify non-selective compounds using the VP16 reporter assay.; assay type: functional
[17] = target: SWI/SNF-related matrix-associated actin-dependent regulator of chromatin subfamily A member 2 (Homo sapiens, UniProt P51531); assay: Luminescence-based cell-based high throughput dose response assay to identify activators of the function of SWI/SNF related, matrix associated, actin dependent regulator of chromatin, subfamily a, member 2 (SMARCA2, BRM).; assay type: functional
Sequence of SWI/SNF-related matrix-associated actin-dependent regulator of chromatin subfamily A member 2 (P51531 whole entry): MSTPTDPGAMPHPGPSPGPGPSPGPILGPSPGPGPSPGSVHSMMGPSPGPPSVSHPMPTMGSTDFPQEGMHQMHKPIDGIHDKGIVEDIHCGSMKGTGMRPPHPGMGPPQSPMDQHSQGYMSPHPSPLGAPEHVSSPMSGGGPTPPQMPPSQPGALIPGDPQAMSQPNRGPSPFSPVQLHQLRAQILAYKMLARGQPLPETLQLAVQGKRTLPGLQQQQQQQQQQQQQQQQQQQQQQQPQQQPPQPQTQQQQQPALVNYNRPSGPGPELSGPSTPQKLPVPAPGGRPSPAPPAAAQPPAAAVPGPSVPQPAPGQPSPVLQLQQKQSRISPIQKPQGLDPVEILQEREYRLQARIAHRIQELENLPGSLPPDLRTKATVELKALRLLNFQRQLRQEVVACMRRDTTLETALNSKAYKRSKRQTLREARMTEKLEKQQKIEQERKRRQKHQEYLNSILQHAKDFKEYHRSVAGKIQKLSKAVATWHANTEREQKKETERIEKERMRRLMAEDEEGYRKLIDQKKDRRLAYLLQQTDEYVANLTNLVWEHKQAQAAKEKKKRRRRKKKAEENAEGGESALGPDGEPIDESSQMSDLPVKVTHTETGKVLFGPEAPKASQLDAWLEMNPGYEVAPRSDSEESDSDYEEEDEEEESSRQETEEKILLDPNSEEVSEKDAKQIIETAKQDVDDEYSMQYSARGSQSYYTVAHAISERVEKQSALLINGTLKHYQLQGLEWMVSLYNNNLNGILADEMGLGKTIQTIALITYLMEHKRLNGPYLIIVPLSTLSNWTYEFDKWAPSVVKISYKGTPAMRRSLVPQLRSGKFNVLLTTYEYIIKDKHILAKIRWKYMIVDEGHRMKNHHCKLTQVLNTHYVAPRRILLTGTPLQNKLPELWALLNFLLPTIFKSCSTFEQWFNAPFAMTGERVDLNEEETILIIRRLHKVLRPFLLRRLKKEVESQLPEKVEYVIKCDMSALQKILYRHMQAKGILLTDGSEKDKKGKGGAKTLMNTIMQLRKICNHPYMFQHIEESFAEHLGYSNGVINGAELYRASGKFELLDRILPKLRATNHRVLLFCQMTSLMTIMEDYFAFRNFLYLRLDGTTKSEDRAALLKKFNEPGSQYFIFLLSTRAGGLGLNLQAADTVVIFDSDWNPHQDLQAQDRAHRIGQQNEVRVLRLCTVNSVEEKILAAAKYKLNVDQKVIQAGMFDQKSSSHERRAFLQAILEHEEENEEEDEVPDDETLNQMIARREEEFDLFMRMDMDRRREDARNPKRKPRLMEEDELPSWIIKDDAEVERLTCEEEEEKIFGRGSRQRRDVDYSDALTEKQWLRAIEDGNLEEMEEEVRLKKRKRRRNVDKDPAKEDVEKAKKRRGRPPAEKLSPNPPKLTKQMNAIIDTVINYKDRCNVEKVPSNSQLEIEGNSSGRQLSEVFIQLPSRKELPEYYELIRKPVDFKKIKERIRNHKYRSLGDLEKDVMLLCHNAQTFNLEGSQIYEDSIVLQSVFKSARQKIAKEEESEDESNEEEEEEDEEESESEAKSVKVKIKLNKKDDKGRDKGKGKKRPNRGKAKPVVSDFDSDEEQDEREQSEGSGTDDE

[18] = target: DNA (cytosine-5)-methyltransferase 1 (Homo sapiens, UniProt P26358); assay: inhibition of DNA methylation by DNMT1 – biochemical, fluorescent molecular beacon, confirmation (AID 602386); assay type: functional
[19] = tested on: INS1; assay: INS-1E survival protection against cytokine death – cell-based, luminescence, retest, dose response (AID 449756); assay type: functional; settings: Rattus norvegicus;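 also: cell death triggered by IL-1 beta plus TNF-alpha plus IFN-gamma mixture; protective hits raise ATP signal compared with cytokine alone wells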
[20] = cells; assay type: functional, cell-based; remark: listed apart in the source
[21] = target: Testis-specific serine/threonine-protein kinase 2 (Homo sapiens, UniProt Q96PF2); assay type: functional;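 also: part of the Navigating the Kinome panel, target entry STK22B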
[22] = target: Mitogen-activated protein kinase 12 (Homo sapiens, UniProt P53778); assay type: functional;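 also: measured as one member of a kinome-wide kinase profiling panel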
[23] = target: Cell division cycle 7-related protein kinase (Homo sapiens, UniProt O00311); assay type: functional;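 also: value obtained from a kinome-wide kinase panel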
Sequence of Cell division cycle 7-related protein kinase (O00311 whole entry): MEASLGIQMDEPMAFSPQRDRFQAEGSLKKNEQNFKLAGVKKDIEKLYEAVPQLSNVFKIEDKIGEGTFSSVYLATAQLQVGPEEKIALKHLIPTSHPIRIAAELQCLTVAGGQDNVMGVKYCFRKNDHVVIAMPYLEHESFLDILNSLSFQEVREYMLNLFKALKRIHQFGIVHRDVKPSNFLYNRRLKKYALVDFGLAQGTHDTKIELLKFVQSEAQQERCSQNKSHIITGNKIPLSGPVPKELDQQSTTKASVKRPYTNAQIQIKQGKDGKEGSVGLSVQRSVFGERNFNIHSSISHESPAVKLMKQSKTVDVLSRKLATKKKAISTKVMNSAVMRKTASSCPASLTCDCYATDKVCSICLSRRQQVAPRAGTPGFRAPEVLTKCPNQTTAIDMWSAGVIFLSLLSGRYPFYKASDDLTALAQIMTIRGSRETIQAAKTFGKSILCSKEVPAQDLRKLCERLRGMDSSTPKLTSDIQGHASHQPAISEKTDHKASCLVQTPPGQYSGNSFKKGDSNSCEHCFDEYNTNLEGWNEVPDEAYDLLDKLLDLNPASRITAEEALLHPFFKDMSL

[24] = target: T4, Rac GTPase-activating protein 1 (Homo sapiens, UniProt Q9H0H5); assay: blockers of MgcRacGAP-driven Rac1 GTP hydrolysis – biochemical, ADP Hunter fluorescence, primary and confirmatory, confirmation (AID 624330); assay type: functional
T4 sequence (Q9H0H5 whole entry): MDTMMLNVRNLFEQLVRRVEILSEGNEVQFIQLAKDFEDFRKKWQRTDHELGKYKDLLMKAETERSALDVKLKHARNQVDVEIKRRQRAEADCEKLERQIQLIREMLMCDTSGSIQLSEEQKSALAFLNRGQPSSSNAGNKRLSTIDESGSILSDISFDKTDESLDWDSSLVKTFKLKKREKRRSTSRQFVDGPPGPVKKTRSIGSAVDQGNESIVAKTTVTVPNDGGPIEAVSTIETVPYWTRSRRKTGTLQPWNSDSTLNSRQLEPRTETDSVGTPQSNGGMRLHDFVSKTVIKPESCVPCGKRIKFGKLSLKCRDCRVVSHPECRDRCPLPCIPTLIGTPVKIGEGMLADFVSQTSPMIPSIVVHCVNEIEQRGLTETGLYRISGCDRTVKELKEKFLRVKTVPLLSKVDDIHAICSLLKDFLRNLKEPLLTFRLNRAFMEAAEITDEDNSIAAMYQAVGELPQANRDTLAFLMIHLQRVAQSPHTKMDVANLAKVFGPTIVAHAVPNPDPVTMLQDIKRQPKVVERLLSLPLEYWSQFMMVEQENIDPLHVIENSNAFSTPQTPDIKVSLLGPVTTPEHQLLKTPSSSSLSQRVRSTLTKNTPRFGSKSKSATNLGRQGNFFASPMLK

[25] = target: T5, Interleukin-8 (Homo sapiens, UniProt P10145); assay: Dose Response confirmation of uHTS small molecule hits for cystic fibrosis induced NFkb Inhibitors in a PAF-induced IL8 counterscreen.; assay type: functional; settings: read-out: IC50_Mean
T5 sequence (P10145 whole entry): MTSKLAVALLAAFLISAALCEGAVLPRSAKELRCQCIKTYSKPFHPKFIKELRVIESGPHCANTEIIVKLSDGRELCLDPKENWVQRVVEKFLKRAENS

[26] = target: T5, Interleukin-8; assay: Dose Response confirmation of uHTS small molecule hits for cystic fibrosis induced NFkb Inhibitors in a TNFa-induced IL8 counterscreen.; assay type: functional; settings: read-out: IC50_Mean
[27] = target: Potassium voltage-gated channel subfamily KQT member 2 (Rattus norvegicus, UniProt O88943); assay: blockers of KCNQ2 channel current – cell-based, automated electrophysiology, set II, rat KCNQ2, dose response (AID 588637); assay type: functional

Sequence of Dual specificity protein phosphatase 3 (P51452 whole entry): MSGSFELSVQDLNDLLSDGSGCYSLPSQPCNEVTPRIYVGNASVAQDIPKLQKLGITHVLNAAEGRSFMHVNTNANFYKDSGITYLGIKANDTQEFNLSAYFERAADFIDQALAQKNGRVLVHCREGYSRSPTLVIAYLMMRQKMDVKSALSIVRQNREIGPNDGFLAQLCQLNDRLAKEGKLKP

## CCOC(=O)N1CCC(N(CCN(C)C)C(=S)Nc2ccc(Oc3ccccc3)cc2)CC1
[1]
  IC50: 0.5 µM (active)
[2]
  IC50: 3.17 µM (active)
[3]
  IC50: 6.93 µM (active)

## O=C(NCCc1ccccc1)c1ccc(=O)oc1
[4]
  IC50: 144 µM (inactive)

## Cc1nc(Cc2nnc(SC(C)C(=O)N3c4ccccc4NC(=O)C3(C)C)o2)cs1 (stereo unspecified)
[5]
  EC50: > 54.7 µM (inactive)
[6]
  EC50: > 54.7 µM (inactive)
[7]
  EC50: > 55.9 µM (inactive)
[8]
  IC50: > 89.1 µM (inactive)

## CCOC(=O)c1ccc(/N=c2\sc(C(=O)OC)cc(=O)n2-c2ccc(C(=O)OCC)cc2)cc1
[9]
  EC50: 3.42 µM (active)
[10]
  IC50: > 64.6 µM (inactive)
[11]
  IC50: > 80 µM (inactive)
[12]
  IC50: > 64.6 µM (inactive)

## CCc1ccccc1Cn1ncc(Cl)c(Oc2ccc(OC)cc2)c1=O
[13]
  IC50: 4.62 µM (active)

## COc1ccc(/C=C2\Oc3cc(OCC(=O)N4CCC(C(=O)O)CC4)ccc3C2=O)c(OC)c1
[5]
  EC50: > 54.7 µM (inactive)
[6]
  EC50: > 54.7 µM (inactive)
[7]
  EC50: > 56 µM (inactive)
[8]
  IC50: > 89.3 µM (inactive)

## Cc1ccccc1C(=O)Nc1cccc(OC(C)C)c1 [MEPRONIL]
[14]
  AC50: 28.2 µM (inconclusive)

## CCN(CC)CCOc1ccc2c(c1)C(=NO)c1cc(OCCN(CC)CC)ccc1-2
[15]
  EC50: > 350 µM (not active)
[16]
  EC50: > 91.1 µM (inactive)
[17]
  EC50: 11.4 µM (inactive)
[18]
  IC50: > 99 µM (inactive)
[19]
  AC50: 5.22 µM (active)
[20]
  EC50: > 350 µM (not active)

## C[S+]([O-])c1ccc(-c2nc(-c3ccncc3)c(-c3ccc(F)cc3)[nH]2)cc1 (stereo unspecified) [SB-203580]
[21]
  Ki: > 1.58 µM (inactive)
[22]
  Ki: > 6.31 µM (inactive)
[23]
  Ki: > 1.26 µM (inactive)

## COc1ccc(-c2c[nH]nc2-c2ccc(O)cc2O)cc1
[24]
  IC50: 43.9 µM (active)
[25]
  IC50: 6.94 µM (active)
[26]
  IC50: 2.62 µM (active)

## Cc1ccc2nc(-c3ccccc3)cc(C(=O)N3CC(C)OC(C)C3)c2c1 (stereo unspecified)
[27]
  IC50: 0.0681 µM (active)
